What was measured:
[1] = tested on: IL-1-beta secretion by peripheral blood mononuclear cells (PBMC); assay: LPS-stimulated PBMC cytokine secretion, IL-1-beta ELISA; assay type: cell-based, human
Text: (§1) FIG. 1 and the following two tables show data from an in vitro experiment using PBMC from a healthy donor who provided peripheral blood mononuclear cells (PBMC) for this experiment. (PBMC are isolated from whole blood by gradient centrifugation. PBMC contain mostly lymphocytes and monocytes (neutrophils having been excluded by the separation procedure). They are commonly used to assess immune functions in vitro.) The PBMC were stimulated with LPS. (LPS is lipopolysaccharide, a component of bacterial cell wall, which is commonly used as an antigen non-specific stimulator (also called a mitogen) of immune cell proliferation, synthesis and secretion. It is commonly used in vitro to simulate an immune response in vivo. Chemicals which block the LPS stimulated synthesis or secretion of pro-inflammatory mediators by immune cells (primarily lymphocytes and monocytes) may have similar activity in vivo and therefore may have anti-inflammatory activity in vivo.) After 24 to 48 hours, the supernatant from each culture well was collected and assayed for the pro-inflammatory mediator noted (tumer necrosis factor (TNF)-alpha or IL-1-beta using a modified enzyme linked immunosorbent assay (ELISA). […]

[2] = tested on: TNF-alpha secretion by peripheral blood mononuclear cells (PBMC); assay: LPS-stimulated PBMC cytokine secretion, TNF-alpha ELISA; assay type: cell-based, human
Text: as §1

[3] = eggplant extract plus iron at 0.25%, percent of maximal secretion

Question: What does the source list for `C[C@]12CCC(=O)C=C1CC[C@@H]1[C@@H]2[C@@H](O)C[C@@]2(C)[C@H]1CC[C@]2(O)C(=O)CO` [Hydrocortisone]?
Answer: Mean IL-1 beta release ([1]; eggplant extract + iron at 0.25%, supernatant after 24 to 48 hours, +LPS no drug 3507.8): 1757.8 picograms of cytokine per 1x10^6 cells; Mean IL-1-beta released, percent of +LPS (no drug) [1, 3]: 50%; Mean TNF-alpha release ([2]; eggplant extract + iron at 0.25%, supernatant after 24 to 48 hours, +LPS no drug 11753.0): 298.8 picograms of cytokine per 1x10^6 cells; Mean TNF-alpha released, percent of +LPS (no drug) [2, 3]: 3%
